Data as given in PubChem BioAssay AID743237 (The Scripps Research Institute Molecular Screening Center, 2013).
Active and inactive are the calls of the source. How the calls were made is not given here.

These molecules were tested on Galpha16-expressing cells, calcium fluorescence, counterscreen (assay: nonselective Ga16 antagonists, potency, late-stage follow-up, counter-screen for TAAR1 antagonist project, cell-based, fluorescence, dose response (AID 743237)).
In the case of `Cc1ccc(CSCC(=O)Nc2cc(S(=O)(=O)N3CCOCC3)ccc2OCC(F)(F)F)cc1`, the IC50 is reported as > 29.9 µM (inactive).
In the case of `O=C(NCCn1cc(SCc2ccccc2F)c2ccccc21)c1c(F)cccc1F`, the IC50 is reported as > 29.9 µM (inactive).
For `CCOC(=O)C1CCCN(c2c(C(=O)c3ccccc3)cnc3ccc(OC)cc23)C1` (centres undefined), the IC50 was > 29.9 µM (inactive).
With `COc1cccc(-c2nn(-c3ccccc3)cc2C(=O)Nc2nccs2)c1` the IC50 was > 29.9 µM (inactive).
In the case of `CC(=O)c1ccc(NC(=O)c2ccc(COc3ccccc3[N+](=O)[O-])o2)cc1`, the IC50 is reported as > 29.9 µM (inactive).
In the case of `COc1cc(NC(=O)c2cc3ccccc3o2)c(OC)cc1Cl`, the IC50 is reported as > 29.9 µM (inactive).
`Cc1coc(NC(=O)CSc2nc(-c3ccc(Cl)cc3)cc(C(F)(F)F)c2C#N)n1` was tested, and the IC50 was > 29.9 µM (inactive).
`Cc1cccc(C(C#N)c2nc3ccccc3nc2C(F)(F)F)c1` (centres undefined) was tested, and the IC50 was > 29.9 µM (inactive).
`CCCCC(=O)Nc1ccc(C(=O)Nc2ccc(S(=O)(=O)N3CCCC3)cc2)cc1` was tested, and the IC50 was > 29.9 µM (inactive).
